According to ChEMBL document CHEMBL3885861, “Open TG-GATES”:

Species: Rattus norvegicus
Test: Open TG-GATES - Regimen: Daily Repeat
Type: toxicity, organism-based, Sprague-Dawley
Parameters: regimen Daily Repeat, gender Male, age 6 weeks
Details: in vivo, po, 200 mg/kg, route gavage, dose level High; for APTT / Bas / Eos / Fbg / Hb / Ht / Lym / MCH / MCHC / MCV / Mono / Neu / PT / Plat / RBC / Ret / WBC: tissue Blood; for KIDNEY_L / KIDNEY_R / KIDNEY_TOTAL: tissue Kidney; for LIVER: tissue Liver; for A/G / ALP / ALT / AST / BUN / CRE / Ca / Cl / DBIL / GLC / IP / K / LDH / Na / PL / RALB / TBIL / TC / TG / TP / gamma-GTP: tissue Plasma

## NNC(=O)c1ccncc1 [ISONIAZID]
72 h, time 3 day
  TERMINAL_BW: 211.3 g
  APTT: 15.3 s
  Bas: 0%
  Eos: 0.8%
  Fbg: 228.6 mg/dL
  Hb: 13.5 g/dL
  Ht: 40.4%
  Lym: 78.4%
  MCH: 21.5 pg
  MCHC: 33.5%
  MCV: 64.1 fL
  Mono: 4.6%
  Neu: 16%
  PT: 12 s
  Plat: 140.8 x10_4/uL
  RBC: 629.8 x10_4/ul
  Ret: 6.5%
  WBC: 96.9 x10_2/uL
  KIDNEY_L: 1 g
  KIDNEY_R: 1.1 g
  KIDNEY_TOTAL: 2.1 g
  LIVER: 10.5 g
  A/G: 1.9
  ALP: 722.8 IU/L
  ALT: 10.6 IU/L
  AST: 44.4 IU/L
  BUN: 19 mg/dL
  CRE: 0.5 mg/dL
  Ca: 10.6 mg/dL
  Cl: 104.8 meq/L
  DBIL: 0.006 mg/dL
  GLC: 209.6 mg/dL
  IP: 7.6 mg/dL
  K: 5.1 meq/L
  LDH: 95.8 IU/L
  Na: 140.2 meq/L
  PL: 140.6 mg/dL
  RALB: 3.8 g/dL
  TBIL: 0.3 mg/dL
  TC: 78.6 mg/dL
  TG: 63 mg/dL
  TP: 5.8 g/dL
  gamma-GTP: 1.4 IU/L
[…], time 7 day
  TERMINAL_BW: 228.8 g
  APTT: 16.3 s
  Bas: 0%
  Eos: 0.6%
  Fbg: 236.4 mg/dL
  Hb: 13.6 g/dL
  Ht: 40.5%
  Lym: 81.4%
  MCH: 20 pg
  MCHC: 33.5%
  MCV: 59.7 fL
  Mono: 4.6%
  Neu: 13.2%
  PT: 12.1 s
  Plat: 138 x10_4/uL
  RBC: 678.2 x10_4/ul
  Ret: 4.7%
  WBC: 126.4 x10_2/uL
  KIDNEY_L: 1.2 g
  KIDNEY_R: 1.2 g
  KIDNEY_TOTAL: 2.3 g
  LIVER: 11.1 g
  A/G: 1.6
  ALP: 757.4 IU/L
  ALT: 8.6 IU/L
  AST: 46.8 IU/L
  BUN: 16.2 mg/dL
  CRE: 0.5 mg/dL
  Ca: 10.4 mg/dL
  Cl: 105 meq/L
  DBIL: 0.028 mg/dL
  GLC: 212.2 mg/dL
  IP: 8 mg/dL
  K: 5.1 meq/L
  LDH: 77.6 IU/L
  Na: 140.6 meq/L
  PL: 127.8 mg/dL
  RALB: 3.8 g/dL
  TBIL: 0.3 mg/dL
  TC: 64.4 mg/dL
  TG: 62.2 mg/dL
  TP: 6.1 g/dL
  gamma-GTP: 1.2 IU/L
[…], time 14 day
  TERMINAL_BW: 255.7 g
  APTT: 16.2 s
  Bas: 0%
  Eos: 1.2%
  Fbg: 212.8 mg/dL
  Hb: 13.3 g/dL
  Ht: 39.7%
  Lym: 73.4%
  MCH: 18.9 pg
  MCHC: 33.6%
  MCV: 56.2 fL
  Mono: 5.8%
  Neu: 19.8%
  PT: 12.3 s
  Plat: 134 x10_4/uL
  RBC: 707.4 x10_4/ul
  Ret: 5.4%
  WBC: 130.8 x10_2/uL
  KIDNEY_L: 1.2 g
  KIDNEY_R: 1.2 g
  KIDNEY_TOTAL: 2.3 g
  LIVER: 12.1 g
  A/G: 1.7
  ALP: 587.6 IU/L
  ALT: 8.8 IU/L
  AST: 48.4 IU/L
  BUN: 20.4 mg/dL
  CRE: 0.6 mg/dL
  Ca: 10.3 mg/dL
  Cl: 106.8 meq/L
  DBIL: 0.004 mg/dL
  GLC: 210.8 mg/dL
  IP: 7.8 mg/dL
  K: 5.1 meq/L
  LDH: 123.4 IU/L
  Na: 139.8 meq/L
  PL: 123.2 mg/dL
  RALB: 3.7 g/dL
  TBIL: 0.3 mg/dL
  TC: 60.2 mg/dL
  TG: 61.8 mg/dL
  TP: 5.9 g/dL
  gamma-GTP: 0.2 IU/L
[…], time 28 day
  TERMINAL_BW: 314.6 g
  APTT: 15.9 s
  Bas: 0%
  Eos: 0.8%
  Fbg: 226.2 mg/dL
  Hb: 13 g/dL
  Ht: 39%
  Lym: 84.2%
  MCH: 16.6 pg
  MCHC: 33.2%
  MCV: 50 fL
  Mono: 5.5%
  Neu: 9.2%
  PT: 12.2 s
  Plat: 130.1 x10_4/uL
  RBC: 781.8 x10_4/ul
  Ret: 3.8%
  WBC: 181.2 x10_2/uL
  KIDNEY_L: 1.4 g
  KIDNEY_R: 1.4 g
  KIDNEY_TOTAL: 2.8 g
  LIVER: 12.6 g
  A/G: 1.6
  ALP: 533 IU/L
  ALT: 6.8 IU/L
  AST: 49.8 IU/L
  BUN: 19.5 mg/dL
  CRE: 0.6 mg/dL
  Ca: 9.9 mg/dL
  Cl: 106 meq/L
  DBIL: 0.0525 mg/dL
  GLC: 212.5 mg/dL
  IP: 6.7 mg/dL
  K: 4.9 meq/L
  LDH: 81.2 IU/L
  Na: 140.8 meq/L
  PL: 108.2 mg/dL
  RALB: 3.6 g/dL
  TBIL: 0.2 mg/dL
  TC: 53.8 mg/dL
  TG: 41.8 mg/dL
  TP: 5.8 g/dL
  gamma-GTP: 1.5 IU/L
